Laboratory results as given in ChEMBL document CHEMBL5465560, “Selectivity Literature for EUbOPEN Chemogenomic Library” (2024).

Key:
[1] = target: T1, Ephrin type-B receptor 1 (Homo sapiens) (UniProt P54762); assay: Selectivity interaction (ProQinase) EUB0000171b EPHB1
T1 sequence (whole entry): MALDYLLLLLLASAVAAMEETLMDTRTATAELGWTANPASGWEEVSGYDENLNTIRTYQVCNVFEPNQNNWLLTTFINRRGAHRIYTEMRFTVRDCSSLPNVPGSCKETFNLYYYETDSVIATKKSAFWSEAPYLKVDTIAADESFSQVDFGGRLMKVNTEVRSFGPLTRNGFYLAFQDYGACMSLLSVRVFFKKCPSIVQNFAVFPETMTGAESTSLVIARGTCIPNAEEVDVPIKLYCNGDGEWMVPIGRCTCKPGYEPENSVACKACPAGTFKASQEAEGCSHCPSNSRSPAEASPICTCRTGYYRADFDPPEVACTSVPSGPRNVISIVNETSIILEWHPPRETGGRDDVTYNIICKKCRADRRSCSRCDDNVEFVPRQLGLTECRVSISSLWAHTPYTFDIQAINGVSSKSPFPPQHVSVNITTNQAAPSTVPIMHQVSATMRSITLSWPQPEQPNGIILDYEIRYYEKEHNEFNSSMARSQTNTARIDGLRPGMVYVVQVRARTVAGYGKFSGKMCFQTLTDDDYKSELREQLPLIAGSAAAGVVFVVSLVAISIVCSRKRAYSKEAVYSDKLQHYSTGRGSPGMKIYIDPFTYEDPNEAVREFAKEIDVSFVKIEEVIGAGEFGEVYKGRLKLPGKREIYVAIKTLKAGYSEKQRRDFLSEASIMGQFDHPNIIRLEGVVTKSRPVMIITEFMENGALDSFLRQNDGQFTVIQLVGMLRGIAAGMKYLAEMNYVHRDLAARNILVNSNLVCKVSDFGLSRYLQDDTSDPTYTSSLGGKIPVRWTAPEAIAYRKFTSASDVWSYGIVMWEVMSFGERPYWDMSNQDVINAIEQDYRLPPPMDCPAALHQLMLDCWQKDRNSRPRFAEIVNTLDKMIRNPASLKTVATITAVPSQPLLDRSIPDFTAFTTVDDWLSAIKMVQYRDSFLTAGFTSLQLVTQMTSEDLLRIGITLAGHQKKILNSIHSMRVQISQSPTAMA

[2] = target: T2, Serine/threonine-protein kinase D1 (Homo sapiens) (UniProt Q15139); assay: Selectivity interaction (KinomeScan (DiscoverX)) EUB0000655a PRKD1; conditions: at 10 µM
T2 sequence (whole entry): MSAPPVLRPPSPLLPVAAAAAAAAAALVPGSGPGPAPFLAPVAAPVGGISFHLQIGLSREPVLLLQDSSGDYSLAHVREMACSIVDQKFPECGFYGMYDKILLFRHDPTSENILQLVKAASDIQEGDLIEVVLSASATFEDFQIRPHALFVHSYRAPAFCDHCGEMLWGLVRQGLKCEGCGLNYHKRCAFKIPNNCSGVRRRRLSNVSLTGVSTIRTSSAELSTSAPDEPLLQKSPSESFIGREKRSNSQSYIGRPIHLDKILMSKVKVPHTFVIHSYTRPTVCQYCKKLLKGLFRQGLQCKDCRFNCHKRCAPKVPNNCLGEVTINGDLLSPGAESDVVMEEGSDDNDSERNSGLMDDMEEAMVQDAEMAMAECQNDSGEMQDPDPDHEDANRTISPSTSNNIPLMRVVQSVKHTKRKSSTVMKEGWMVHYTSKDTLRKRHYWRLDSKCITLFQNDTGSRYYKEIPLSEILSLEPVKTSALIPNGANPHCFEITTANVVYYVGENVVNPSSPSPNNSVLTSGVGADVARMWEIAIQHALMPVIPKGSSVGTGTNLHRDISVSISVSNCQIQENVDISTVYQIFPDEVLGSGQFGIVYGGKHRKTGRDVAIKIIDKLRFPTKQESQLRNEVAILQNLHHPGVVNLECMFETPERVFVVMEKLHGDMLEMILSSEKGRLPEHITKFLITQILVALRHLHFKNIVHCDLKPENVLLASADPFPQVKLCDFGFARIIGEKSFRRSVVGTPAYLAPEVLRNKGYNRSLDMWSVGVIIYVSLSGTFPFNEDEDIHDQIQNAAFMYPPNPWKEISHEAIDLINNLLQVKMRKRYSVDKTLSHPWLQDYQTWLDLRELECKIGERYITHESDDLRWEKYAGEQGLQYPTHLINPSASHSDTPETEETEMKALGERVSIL

[3] = target: T3, Serine/threonine-protein kinase LATS1 (Homo sapiens) (UniProt O95835); assay: Selectivity interaction (KinomeScan (DiscoverX)) EUB0000655a LATS1; conditions: at 10 µM
T3 sequence (whole entry): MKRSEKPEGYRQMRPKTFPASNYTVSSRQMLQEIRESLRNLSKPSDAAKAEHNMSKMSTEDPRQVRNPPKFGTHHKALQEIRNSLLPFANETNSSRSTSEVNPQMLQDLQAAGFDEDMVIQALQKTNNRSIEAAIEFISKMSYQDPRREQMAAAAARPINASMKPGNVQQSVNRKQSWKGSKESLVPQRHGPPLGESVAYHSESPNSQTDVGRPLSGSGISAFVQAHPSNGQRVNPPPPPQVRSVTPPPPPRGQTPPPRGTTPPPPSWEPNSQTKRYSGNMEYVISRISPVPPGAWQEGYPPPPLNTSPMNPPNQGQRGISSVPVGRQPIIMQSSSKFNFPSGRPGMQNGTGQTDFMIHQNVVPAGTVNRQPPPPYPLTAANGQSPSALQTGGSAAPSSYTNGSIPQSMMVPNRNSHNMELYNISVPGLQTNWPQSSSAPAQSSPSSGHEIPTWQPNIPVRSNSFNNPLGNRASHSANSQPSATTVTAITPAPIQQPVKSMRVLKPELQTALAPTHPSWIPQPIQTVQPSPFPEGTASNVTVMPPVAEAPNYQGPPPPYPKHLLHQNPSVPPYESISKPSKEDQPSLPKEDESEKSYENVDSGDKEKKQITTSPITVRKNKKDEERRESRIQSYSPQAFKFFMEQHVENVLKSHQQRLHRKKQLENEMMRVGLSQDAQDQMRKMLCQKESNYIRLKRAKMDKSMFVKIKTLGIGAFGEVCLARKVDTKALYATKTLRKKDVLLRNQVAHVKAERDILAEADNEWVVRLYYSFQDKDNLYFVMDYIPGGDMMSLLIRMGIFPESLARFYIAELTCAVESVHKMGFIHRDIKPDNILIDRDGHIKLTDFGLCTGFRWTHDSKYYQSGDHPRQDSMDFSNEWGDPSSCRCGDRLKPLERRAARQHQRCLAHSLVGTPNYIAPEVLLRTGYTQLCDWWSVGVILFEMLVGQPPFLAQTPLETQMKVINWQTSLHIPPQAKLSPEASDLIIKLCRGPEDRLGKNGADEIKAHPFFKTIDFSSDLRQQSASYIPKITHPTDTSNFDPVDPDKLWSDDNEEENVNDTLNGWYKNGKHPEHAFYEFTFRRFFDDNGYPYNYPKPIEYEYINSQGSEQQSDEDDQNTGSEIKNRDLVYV

| % of control ([1]; at 1 µM) [%] | % of control ([1]; at 5 µM) [%] | SMILES | % of control [2] [%] | % of control [3] [%] |
| --- | --- | --- | --- | --- |
| 83 | 82 | C=CC(=O)Nc1cccc(C(=O)Nc2ccc(Nc3cc(-c4[nH]c(SC)nc4C)ccn3)cc2)c1 |  |  |
|  |  | CN(C)CCOc1ccc(-c2nc(-c3ccncc3)c(-c3ccc4c(c3)CC/C4=N\O)[nH]2)cc1 | 3.8 | 87 |
